The numbers were not newly measured in US6984402B2, “Chrono delivery formulations and method of treating atrial fibrillation” (Elite Laboratories, Inc., priority 2000, dated 2006), which cites them from elsewhere.

The structures appear in SMILES notation.

Turning to `COc1ccc([C@@H]2Sc3ccccc3N(CCN(C)C)C(=O)[C@@H]2OC(C)=O)cc1` [diltiazem], the half-life in blood (humans) was 3 to 4 h. In addition, the absolute bioavailability (oral, compared with intravenous administration) is on record as 40%.
